According to BindingDB's records for patent US20240092761 (Iambic Therapeutics, 2024):
pIC50: −log10 of the molar value.

Experiments:
[1] = biological target: Cyclin-dependent kinase 4/G1/S-specific cyclin-D1 (Homo sapiens, UniProt P11802); assay: CDK4/Cyclin D1 Mobility Shift Assay (MSA)
Method: CDK4/Cyclin D1 catalyzes the production of ADP from ATP that accompanies the phosphoryl transfer to the substrate peptide 5-FAM-Dyrktide (5-FAM-RRRFRPASPLRGPPK) (Perkin Elmer Peptide 34). The mobility shift assay (MSA) electrophoretically separates the fluorescently labelled peptides (substrate and phosphorylated product) following the kinase reaction. Both substrate and product are measured, and the ratio of these values is used to generate % conversion of substrate to product by the LabChip EZ Reader. Typical reaction solutions contained 2% DMSO (+/−inhibitor), 10 mM MgCl2, 1 mM EGTA, 0.05% BSA, 2 mM DTT, 0.2 mM ATP, 0.01% Brig-35, 1.5 uM 5-FAM-Dyrktide, 2.5 nM CDK4/Cyclin D1 in 50 mM HEPES buffer at pH 7.5. The reaction was initiated with the addition of substrate solution, following a 30-minute pre-incubation of enzyme and inhibitor at 22° C. in the reaction mix. The reaction was stopped after 180 minutes by the addition of 75 uL of 500 mM EDTA and measured on a Perkin Elmer EZ reader instrument.

[2] = biological target: Cyclin-dependent kinase 2/G1/S-specific cyclin-E1 (Homo sapiens, UniProt P24941); assay: CDK2/Cyclin E1 Full Length ADP-Glo Kinase Assay
Method: ADP-Glo is performed in 2 steps upon completion of kinase reaction: a combined termination of kinase reaction and depletion of remaining ATP in the first step, and conversion of generated ADP to ATP and the newly produced ATP to light output using luciferase/luciferin reaction in the second step. The luminescent signal generated is proportional to the ADP concentration produced and is correlated with the kinase activity. CDK2/Cyclin E1 was purchased from Eurofins (Cat 14-475M). Typical reaction solutions (10 uL final reaction volume) contained 2% DMSO (f inhibitor), 10 mM MgCI2, 1 mM EGTA, 0.05% BSA, 2 mM DTT, 20 uM ATP (ATP Km=64.78 uM), 0.01% Brig-35, 0.75 uM substrate, and 0.328 nM wild-type full length CDK2/Cyclin E1 enzyme complex in 50 mM HEPES buffer at pH 7.5. The assay was initiated with the addition of ATP-containing substrate solution, following a 30-minute pre-incubation of enzyme and inhibitor at room temperature in the reaction mixture. The reaction was stopped after 90 minutes at room temperature by the addition of 10 uL of ADP-GLO Reagent. After a 90 minute incubation, 20 uL of Kinase Detection Reagent was added. Samples were incubated for 40 minutes, after which plate well luminescence was measured on a Envision microplate reader.

[3] = biological target: Cyclin-dependent kinase/G2/mitotic-specific cyclin- 1 (Homo sapiens, UniProt P06493); assay: CDK1/Cyclin B1 ADP-Glo Kinase Assay
Method: The luminescent signal generated is proportional to the ADP concentration produced and is correlated with the kinase activity. CDK1/Cyclin B1 was purchased from Carna (Cat 04-102). Typical reaction solutions (10 uL final reaction volume) contained 2% DMSO (f inhibitor), 10 mM MgCl2, 1 mM EGTA, 0.05% BSA, 2 mM DTT, 80 uM ATP (ATP Km=78.6 uM), 0.01% Brig-35, 0.75 uM substrate, and 4.917 nM CDK1/Cyclin Bl enzyme complex in 50 mM HEPES buffer at pH 7.5. The assay was initiated with the addition of ATP-containing substrate solution, following a 30-minute pre-incubation of enzyme and inhibitor at room temperature in the reaction mixture. The reaction was stopped after 90 minutes at room temperature by the addition of 10 uL of ADP-GLO Reagent. After a 90 minute incubation, 20 uL of Kinase Detection Reagent was added. Samples were incubated for 40 minutes, after which plate well luminescence was measured on a Envision microplate reader.

Sequence of Cyclin-dependent kinase/G2/mitotic-specific cyclin- 1 (P06493 whole entry): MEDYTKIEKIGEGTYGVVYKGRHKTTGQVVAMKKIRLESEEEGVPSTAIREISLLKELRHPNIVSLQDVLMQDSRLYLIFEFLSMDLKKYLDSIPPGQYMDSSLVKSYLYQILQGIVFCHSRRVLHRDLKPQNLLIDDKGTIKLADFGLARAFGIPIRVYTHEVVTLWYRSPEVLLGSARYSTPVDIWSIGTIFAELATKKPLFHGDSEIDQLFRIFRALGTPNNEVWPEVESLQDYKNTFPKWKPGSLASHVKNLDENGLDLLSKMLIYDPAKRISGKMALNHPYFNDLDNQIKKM
Sequence of Cyclin-dependent kinase/G2/mitotic-specific cyclin- 1 (P14635 whole entry, further chain): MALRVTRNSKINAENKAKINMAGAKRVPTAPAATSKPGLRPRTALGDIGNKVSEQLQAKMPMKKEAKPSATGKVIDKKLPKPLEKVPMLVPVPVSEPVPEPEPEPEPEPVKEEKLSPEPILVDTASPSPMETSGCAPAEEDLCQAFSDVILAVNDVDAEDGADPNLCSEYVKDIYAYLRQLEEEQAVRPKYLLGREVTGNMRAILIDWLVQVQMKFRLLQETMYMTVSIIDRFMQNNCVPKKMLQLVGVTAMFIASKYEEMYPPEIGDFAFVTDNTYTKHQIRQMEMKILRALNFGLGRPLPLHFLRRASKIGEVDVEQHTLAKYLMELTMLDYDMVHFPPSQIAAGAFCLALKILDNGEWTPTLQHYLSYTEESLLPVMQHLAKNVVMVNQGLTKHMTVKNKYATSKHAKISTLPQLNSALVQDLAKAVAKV
Sequence of Cyclin-dependent kinase 4/G1/S-specific cyclin-D1 (P11802 whole entry): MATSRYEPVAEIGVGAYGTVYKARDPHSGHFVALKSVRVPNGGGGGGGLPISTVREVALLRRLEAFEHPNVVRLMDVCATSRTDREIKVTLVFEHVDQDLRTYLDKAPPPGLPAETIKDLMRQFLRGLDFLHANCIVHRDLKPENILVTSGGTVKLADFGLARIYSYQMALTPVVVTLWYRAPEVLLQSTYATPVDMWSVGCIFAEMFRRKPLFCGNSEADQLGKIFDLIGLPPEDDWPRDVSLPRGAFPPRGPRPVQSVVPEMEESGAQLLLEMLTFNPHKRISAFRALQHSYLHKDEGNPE
Sequence of Cyclin-dependent kinase 4/G1/S-specific cyclin-D1 (P24385 whole entry, further chain): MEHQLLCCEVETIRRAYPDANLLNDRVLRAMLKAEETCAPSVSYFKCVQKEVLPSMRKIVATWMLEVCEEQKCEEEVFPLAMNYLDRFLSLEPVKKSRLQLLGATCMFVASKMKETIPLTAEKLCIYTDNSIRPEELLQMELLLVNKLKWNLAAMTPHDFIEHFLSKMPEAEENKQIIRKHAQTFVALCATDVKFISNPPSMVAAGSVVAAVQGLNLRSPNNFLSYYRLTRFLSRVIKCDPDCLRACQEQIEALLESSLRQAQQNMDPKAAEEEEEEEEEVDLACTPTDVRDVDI

Work on `CS(=O)(=O)N1CCC(Nc2ncc3cccc(N4CCC(N5CCC5)C4)c3n2)CC1` (stereo not drawn) [US20240092761, Compound 32] yielded a pIC50 [1] of 6.30 to 6.70, a pIC50 [2] greater than 6.70 and a pIC50 [3] of less than 5.70.
